Key:
Test in all cases: relative viability (nuclei count vs DMSO), 5 days (fraction); higher = more cells survive
AZ3146 + OSI-027 = compound: CN1CCC(CC1)OC2=CC(=C(C=C2)NC3=NC=C4C(=N3)N(C(=O)N4C)C5CCCC5)OC [AZ3146] + COc1cccc2cc(-c3nc([C@H]4CC[C@H](C(=O)O)CC4)n4ncnc(N)c34)[nH]c12 [OSI-027] (partner 0.5 µM)
Procedure, shortened: (§1)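 Values are medians from duplicate plates. Each reflects relative viability, defined as the nuclei count of treated wells over that of vehicle wells. Lung cancer cell lines in 1536-well plates were pin-tool dosed one day after seeding with one drug alone or with a fixed anchor-drug dose plus five library-drug doses (not always all listed) in √10 steps, then fixed, stained and imaged at 4× after 5 days.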

AZ3146 + Trametinib = compound: CN1CCC(CC1)OC2=CC(=C(C=C2)NC3=NC=C4C(=N3)N(C(=O)N4C)C5CCCC5)OC [AZ3146] + CC(=O)Nc1cccc(-n2c(=O)n(C3CC3)c(=O)c3c(Nc4ccc(I)cc4F)n(C)c(=O)c(C)c32)c1 [Trametinib] (partner 0.02 µM)
Procedure, shortened: as §1

GSK-J4 + Olaparib = compound: CCOC(=O)CCNc1cc(N2CCc3ccccc3CC2)nc(-c2ccccn2)n1 [GSK-J4] + O=C(c1cc(Cc2n[nH]c(=O)c3ccccc23)ccc1F)N1CCN(C(=O)C2CC2)CC1 [Olaparib] (partner 8 µM)
Procedure, shortened: as §1

AZ3146 + Crizotinib = compound: CN1CCC(CC1)OC2=CC(=C(C=C2)NC3=NC=C4C(=N3)N(C(=O)N4C)C5CCCC5)OC [AZ3146] + C[C@@H](Oc1cc(-c2cnn(C3CCNCC3)c2)cnc1N)c1c(Cl)ccc(F)c1Cl [Crizotinib] (partner 1 µM)
Procedure, shortened: as §1

Cell Line	relative viability (AZ3146 + OSI-027; first compound 0.08 µM)	relative viability (AZ3146 + OSI-027; first compound 0.253 µM)	relative viability (AZ3146 + OSI-027; first compound 0.8 µM)	relative viability (AZ3146 + OSI-027; first compound 2.53 µM)	relative viability (AZ3146 + OSI-027; first compound 8 µM)	relative viability (AZ3146 + Trametinib; first compound 0.08 µM)	relative viability (AZ3146 + Trametinib; first compound 0.253 µM)	relative viability (AZ3146 + Trametinib; first compound 0.8 µM)	relative viability (AZ3146 + Trametinib; first compound 2.53 µM)	relative viability (AZ3146 + Trametinib; first compound 8 µM)	relative viability (GSK-J4 + Olaparib; first compound 0.5 µM)	relative viability (GSK-J4 + Olaparib; first compound 1.581 µM)	relative viability (GSK-J4 + Olaparib; first compound 5 µM)	relative viability (GSK-J4 + Olaparib; first compound 15.81 µM)	relative viability (GSK-J4 + Olaparib; first compound 50 µM)	relative viability (AZ3146 + Crizotinib; first compound 0.253 µM)	relative viability (AZ3146 + Crizotinib; first compound 0.8 µM)	relative viability (AZ3146 + Crizotinib; first compound 2.53 µM)	relative viability (AZ3146 + Crizotinib; first compound 8 µM)	relative viability (AZ3146 + Crizotinib; first compound 0.08 µM)
NCI-H2342	0.592	0.536	0.59	0.508	0.61	0.715	0.741	0.989	0.89	0.89	0.368	0.427	0.501	0.431	0.476					
NCI-H1944	0.382	0.359	0.446	0.464	0.374	0.375	0.424	0.435	0.45	0.459	0.389	0.373		0.376	0.358	0.977	1.09	1.13	1.1	
SK-LU-1	0.358	0.326	0.304	0.342	0.357	0.475	0.409	0.436	0.549	0.432	0.433	0.465	0.429	0.428	0.309	1.11	1.03	0.985	0.471	1.1
HCC-44	0.484	0.427	0.416	0.622	0.558	1.07	1.02	0.996	1.04	1.15	0.945	0.945	0.999	1.08	0.906	0.791	0.724	0.796	0.668	0.779
201T	0.679	0.567	0.726	0.765	0.685	0.718	0.728	0.73	0.677	0.685	0.81	0.581	0.831	0.797	0.81	1.03	1	1.06	1.02	1.02
IA-LM											0.872	0.9	0.874	0.706	0.169	0.654	0.898	0.615	0.115	
NCI-H661	0.74	0.72	0.768	0.764	0.576	0.588	0.519	0.572	0.555	0.47	0.704	0.67	0.7	0.559	0.461	1.14	1.03	1.11	0.814	0.979
NCI-H2087	0.54	0.656	0.469	0.674	0.525	0.201	0.196	0.214	0.214	0.182	0.525	0.535	0.439	0.542	0.371	0.875	0.843	0.795	0.376	0.906
NCI-H647	0.55	0.656	0.567	0.684	0.697	0.365	0.44	0.366	0.476	0.317	0.456	0.471	0.545	0.5	0.374	1.12	0.978	0.763	0.201	0.983
A-427	0.431	0.586	0.429	0.574	0.338	0.76	0.753	0.747	0.751	0.545	0.714	0.701		0.66	0.295	0.927	0.869	0.804	0.444	0.877
NCI-H520	0.234	0.255	0.234	0.292	0.233	0.643	0.691	0.54	0.677	0.49	0.32	0.278	0.354	0.332	0.29	0.959	0.613	0.486	0.406	0.691
NCI-H1755	0.589	0.737	0.575	0.72	0.802	0.674	0.787	0.714	0.783	0.785	0.853	0.754	0.841	0.859	0.687	0.888	0.855	0.928	0.816	0.868
NCI-H1975	0.677	0.747	0.785	0.71	0.416	0.315	0.351	0.29	0.348	0.306	0.729	0.715	0.579	0.795	0.849	1.07	0.834	0.406	0.299	0.862
ChaGo-K-1	0.572	0.611	0.539	0.581	0.366	0.826	0.895	0.836	0.892	0.957	0.384		0.441	0.354	0.275	1.26	0.951	0.593	0.328	1
BEN		0.306	0.206	0.285	0.309		1	1.05	0.971	1.04	1.18	0.99	0.776	0.954	0.779	0.869	0.97	0.822	0.829	
SW 1573	0.678	0.633	0.453	0.662	0.204	0.541	0.63	0.663	0.591	0.45	0.471	0.365	0.486	0.354	0.153	0.843	0.892	0.891	0.531	0.758
EPLC-272H		0.277	0.272	0.309	0.308	0.312	0.281	0.272	0.268	0.247	0.722	0.825	0.676	0.652	0.289	0.843	1.02	1.14	0.975	0.78
LK-2	0.227	0.181	0.146	0.206	0.178	0.591	0.684	0.956	0.914	0.747	0.675	0.628	0.98	0.592	0.364			0.228	0.219	0.229
NCI-H23	0.621	0.699	0.403	0.746	0.616	0.455	0.354	0.391	0.422	0.402	0.25	0.299	0.292	0.344	0.285	0.515	0.516	0.425	0.305	0.398

Cell Line	relative viability (AZ3146 + OSI-027; first compound 0.08 µM)	relative viability (AZ3146 + OSI-027; first compound 0.253 µM)	relative viability (AZ3146 + OSI-027; first compound 0.8 µM)	relative viability (AZ3146 + OSI-027; first compound 2.53 µM)	relative viability (AZ3146 + OSI-027; first compound 8 µM)	relative viability (AZ3146 + Trametinib; first compound 0.08 µM)	relative viability (AZ3146 + Trametinib; first compound 0.253 µM)	relative viability (AZ3146 + Trametinib; first compound 0.8 µM)	relative viability (AZ3146 + Trametinib; first compound 2.53 µM)	relative viability (AZ3146 + Trametinib; first compound 8 µM)	relative viability (GSK-J4 + Olaparib; first compound 0.5 µM)	relative viability (GSK-J4 + Olaparib; first compound 1.581 µM)	relative viability (GSK-J4 + Olaparib; first compound 5 µM)	relative viability (GSK-J4 + Olaparib; first compound 15.81 µM)	relative viability (GSK-J4 + Olaparib; first compound 50 µM)	relative viability (AZ3146 + Crizotinib; first compound 0.253 µM)	relative viability (AZ3146 + Crizotinib; first compound 0.8 µM)	relative viability (AZ3146 + Crizotinib; first compound 2.53 µM)	relative viability (AZ3146 + Crizotinib; first compound 8 µM)	relative viability (AZ3146 + Crizotinib; first compound 0.08 µM)
NCI-H441	0.611	0.656	0.528	0.663	0.529	0.512	0.438	0.429	0.501	0.362	0.605	0.487	0.406	0.515	0.422	0.658	0.774	0.773	0.658	0.646
NCI-H2009	0.631	0.621	0.651	0.703	0.436	0.286	0.301	0.271	0.273	0.238	0.603	0.638	0.556	0.593	0.449	1.12	1.04	0.87	0.885	0.978
NCI-H2170	0.676	0.66	0.66	0.713	0.713	0.888	1.04	0.861	0.928	0.859	0.533	0.538	0.652	0.536	0.391	1.07	1.22	1.11	1.03	1.04
NCI-H1299											0.96	0.916	0.878	0.929	0.772	0.961	0.952	0.636	0.511	0.964
HCC-78	0.3	0.381	0.322	0.357	0.365		0.65	0.738	0.823	0.749	0.688	0.774	1.1	0.656	0.742	0.326	0.329	0.387	0.361	
NCI-H3122	1.07	1.03	0.776	0.92	0.729	0.245	0.228	0.224	0.204	0.251	0.539	0.578	0.668	0.575	0.504	0.299	0.274	0.305	0.27	0.294
NCI-H2085	0.614	0.648	0.649	0.852	0.475	0.495	0.57	0.506	1.03	0.403	0.773	0.734	0.654	0.707	0.627	0.998	0.933	0.824	0.658	0.837
Calu-6											0.559	0.567	0.587	0.53	0.608	0.763	0.701	0.465	0.256	0.715
ABC-1	0.466	0.484	0.454	0.614	0.472						0.981	0.929	0.605	0.651	0.488	1.38	1.03	1.07	0.452	0.852
NCI-H1793	0.321	0.256	0.226	0.329	0.247	0.374	0.419	0.393	0.515	0.418	0.751	0.634	0.482	0.201	0.145					
NCI-H1563	0.684	0.731	0.765	0.746	0.696											0.896	0.954	0.802	0.777	0.874
EBC-1											0.603	0.567	0.676	0.655	0.453	0.213	0.173	0.194	0.166	0.192
NCI-H1648		0.268	0.233	0.253	0.302			0.219	0.563	0.568	0.869		1.44		0.793					
NCI-H1703											0.385	0.576	0.372	0.362	0.422	0.59	0.384	0.365	0.241	0.447
A549											0.32		0.29	0.31	0.392	0.777	0.453	0.0847	0.0598	0.655
NCI-H522	0.882	0.664	0.527	0.68	0.759	0.749	0.687	0.747	0.64	0.74	0.597	0.552		0.531	0.409					
NCI-H1623	0.39	0.482	0.458	0.405	0.402															
SW 900	0.459	0.491	0.613	0.549	0.387	0.696		0.557	0.706	0.819	0.903	0.935	1.15	0.797	0.549					
NCI-H1395	0.569	0.533	0.564	0.701	0.633	0.999	1.08		1.07	1.09	0.435	0.48	0.399	0.45	0.406					
